Like-named read-outs stand apart in the source and are kept apart here.

Series [1] is classed as in vitro ADME, human. The source says: The mobility of LE nanoparticles from the produced nanosuspensions in fresh undiluted human cervicovaginal mucus (CVM) was characterized by dark-field microscopy using a CytoViva® High Resolution Illumination System which allows visualization of fluorescent and non-fluorescent nano-sized objects. […] Mobility of particles in the movies was scored on a scale from 0 to 3 in order of increasing mobility, in a single-blind experiment by independent observers. The scoring criterion is as follows: 0-0.5 immobile; 0.51-1.5 slightly mobile; 1.51-2.5 moderately mobile; and 2.51-3.0 very mobile.

Series [2] in a line: Multiple particle tracking of pyrene nanoparticles milled with PVAs and other surface-altering agents in CVM. The method, then: An aqueous dispersion containing pyrene and one of the surface-altering agents listed above was stirred with milling media until particle size was reduced below 500 nm (as measured by dynamic light scattering).
Prior to quantifying mobility of pyrene particles, their spatial distribution in the mucus sample was assessed visually.

The nature of series [3]: Multiple particle tracking of pyrene/stabilizer nanoparticles in CVM. As for the experimental part: Prior to quantifying mobility of the produced pyrene nanoparticles, their spatial distribution in the mucus sample was assessed by microscopy at low magnifications (10×, 40×).
CVM was collected by inserting a Softcup® menstrual collection cup into the vaginal tract as described by the product literature for between 30 seconds and 2 minutes. After removal the CVM was then collected from the Softcup® by gentle centrifugation at ˜30×G to ˜120×G in a 50 mL centrifuge tube. In Example 1, CVM was used undiluted and fresh (stored for no longer than 7 days under refrigerated conditions). Barrier and transport of all CVM samples used in Example 1 were verified with negative (200 nm carboxylated polystyrene particles) and positive (200 nm polystyrene particles modified with PEG 5K) controls. In Example 2, CVM was lyophilized and reconstituted. In Example 2, mucus was frozen at −50° C. and then lyophilized to dryness. Samples were then stored at −50° C. Before use, the mucus was reconstituted by grinding the solid into a fine powder using a mortar and pestle followed by water addition to a final volume equal to the original volume to 2 times the original volume. The reconstituted mucus was then incubated at 4° C. for 12 hours and used as described in Example 2. Barrier and transport of all CVM samples used in Example 2 were verified with negative (200 nm carboxylated polystyrene particles) and positive (F127 coated 200 nm polystyrene particles) controls.

Series [4] concerns vascular leakage after intravitreal injection of VEGF. The experiment in a line: Rabbit VEGF-challenge model (fluorescein angiography). Conditions: day 6; VEGF intravitreal on day 3; 5% axitinib-MPP 50 μL every 4 hours days 1-6, or one intravitreal Avastin on day 1. It counts as in vivo, Dutch belted rabbits. From the text:
On day 3, the rabbits received an intravitreal injection of VEGF. On day 6, the rabbits were accessed for leakage via fluorescein angiography.
In this model, Dutch belted rabbits were given an intravitreal injection of VEGF to stimulate vascular growth. Fluorescein angiography was used to determine the degree to which the rabbits developed abnormal vascular and leakage.

The mark [5] stands for this setting: pyrene nanoparticles milled with the surface-altering agent, in CVM.

Take Pluronic F127: the “mobility score in CVM” value in series [1] is given as > 2.51.

For the molecule Tween 80, in series [2], the “Sample (relative) <Vmean>rel” value worked out at 0.17 and the “Sample <Vmean>” value is on record as 0.94 um/s. In addition, in series [3], the “Sample (relative) <Vmean>rel” value was determined as 0.17 and the “Sample <Vmean> (ensemble-average velocity)” value is 0.94 um/s.

On to `CCCCCCCCCCCCCCCC[N+](C)(C)C` [CTAB, Cetytrimethylammonium bromide], for which, in series [2] (setting [5]), the “Sample (relative) <Vmean>rel” value was −0.02 and the “Sample <Vmean>” value is given as 0.32 um/s. Moreover, in series [3] (pyrene/stabilizer nanoparticles in CVM), the “Sample <Vmean> (ensemble-average velocity)” value is 0.32 um/s. The “Sample (relative) <Vmean>rel” value in series [3] (pyrene/stabilizer nanoparticles in CVM, relative to negative and positive controls) was −0.02.

As for “Avastin®: positive control, one intravitreal injection; commonly used off-label to treat AMD”, in series [4], the “retinal vessel growth and leakage (fluorescein angiography)” value is recorded as “no change in retinal vasculature”.

Take Pluronic P123: in series [1], the “mobility score in CVM” value was 1.51.-2.50.

Regarding Pluronic F68, the “mobility score in CVM” value in series [1] is < 0.50.

As for Tyloxapol, in series [2], the “Sample (relative) <Vmean>rel” value was −0.02 and the “Sample <Vmean>” value is 0.42 um/s. For the same molecule, in series [3], the “Sample (relative) <Vmean>rel” value was −0.02 and the “Sample <Vmean> (ensemble-average velocity)” value is recorded as 0.42 um/s.

Values taken from patent US11219596B2, “Compositions and methods for ophthalmic and/or other applications” (The Johns Hopkins University, priority 2012, dated 2022).
